This note sets out measurements from EP0353047B1, “Use of imidazopyrazole derivatives as analgesics and anti-inflammatory agents” (Sankyo Company Limited, priority 1988, dated 1990).

Data set [1] deals with rats of the Wistar strain. The experiment in a line: Analgesic effect (Randall-Selitto method). Format: in vivo. Particulars: oral; for ED50 / responders at 50 mg/kg: Rattus norvegicus; for responders at 50 mg/kg / Analgesic effect (Randall-Selitto): fraction of animals; for Analgesic effect (Randall-Selitto): dose 25 mg/kg (*). As to the method:
These tests were conducted according to the Randall-Selitto method using rats of the Wistar strain [L.O. Randall, J.J. Selitto: Arch. int. Pharmacodyn. 111, 409 (1957)]. Except where otherwise noted, the dose of test compound was 50 mg/kg.

Data set [2] relates to carrageenan-induced edema. The data set is described as follows: Anti-inflammatory effect (carrageenan edema method). In kind it is in vivo, rats of the Wistar strain. The note with it: oral, Wistar rats; for ED50: Rattus norvegicus, ID₅₀. Background: Carrageenan injected into the paw causes an acute inflammation.
The subject of another data set is gastric acid secretions. The experiment in a line: Anti-ulcer activity: suppression of gastric acid secretions (Shay method). In kind it is in vivo, rats. The note with it: gastric acid secretion.
In data set [3] the test system is male mice of the ddy strain. The data set is described as follows: Acute toxicity. Particulars: fraction of animals; dose 300 mg/kg oral in 0.5% carboxymethyl cellulose, observed for 7 days. Format: in vivo. The protocol:
The test animals employed were male mice of the ddy strain (age: 5 weeks). […] The dose of test compound was 300 mg/kg.

The test system of data set [4] is carrageenan-induced edema. The data set is described as follows: Anti-inflammatory effect (carrageenan edema method). In kind it is in vivo, rats of the Wistar strain. The note with it: Rattus norvegicus, percent inhibition of carrageenan-induced edema, oral. The protocol: The percent inhibition against carrageenan-induced edema in rats of the Wistar strain, using the conventional method of C.A. Winter, E.A. Risley, G.W. Nuss [J. Pharmacol., Exp. Therap., 141, 369 (1963)]. Except where otherwise noted, the dose of test compound was 50 mg/kg.

The subject of data set [5] is inflammation induced by anti-rat IgG rabbit serum. The data set is described as follows: Anti-inflammatory effect (reversed passive alusas reaction, Evans blue extraction). Particulars: oral; for inhibition in vivo at 50 mg/kg / inhibition in vivo at 25 mg/kg: 2.5 h, percent inhibition of inflammation relative to control group; for ED50: ID₅₀, Sprague-Dawley rats. Format: in vivo, rats of the Sprague-Dawley strain. As to the method: The test animals were rats of the Sprague-Dawley strain, which had first been fasted for 17 hours. The hair was trimmed from their dorsal portions by means of a hair clipper, and 0.1 ml/site of anti-rat IgG rabbit serum was injected intracutaneously at the trimmed part to induce inflammation. Except in the case of the control animals, to which no anti-inflammatory drug was administered, the test drug was administered orally immediately before inflammation was induced. Except where otherwise noted, the dose of test compound was 50 mg/kg. Two hours after induction of inflammation, a 1% by volume solution of Evans blue in physiological saline was injected intravenously into the tail of each rat in an amount of 1 ml per each animal. 30 minutes after this injection, the rats were sacrificed with carbon dioxide and their skins were peeled off to extract the chromogen of the blue spots. In more detail, the skins were cut into small pieces and extracted with 5 ml of an extraction solvent at room temperature for 2 days. The supernatant obtained by centrifugation was then measured spectrophotometrically at an absorption wavelength of 605 nm. The percent inhibition of inflammation of the group of rats to which the test drug was administered was determined relative to the control group.

Marks after values point to notes of the source that are not given here.

Consider “3-methoxy-1-(4-methoxy-6-methylpyrimidin-2-yl)-5-methylpyrazole [Mepirizole, reference compound]”, for which the “Analgesic Randall-Selitto (ED₅₀)” value in data set [1] (ED₅₀, Wistar rats) came to 63.9 mg/kg. For the same compound, the “Anti-inflammatory Carrageenan (ID₅₀)” value in data set [2] came to 106 mg/kg.
What is called ED50 is the dose that gives a 50% effect, or the effect in half of the subjects. Read a low ED50 as an effect at a small dose. Consider `CN(C)CCCOc1nn(Cc2ccccc2)c2ccccc12` [Benzydamine, reference compound], for which the ED50 is over 200 mg/kg in data set [1] (ED₅₀, Wistar rats) and 193 mg/kg in data set [2].
Consider `CN/C(=N/CCSCc1nc[nH]c1C)NC#N` [Cimetidine, reference compound], for which the “Suppression rate (%)” value in the data set with gastric acid secretions (dosage 10 mg/kg i.d.) is 62%; with gastric acid secretions (dosage 30 mg/kg i.d.), 58%.
As a reminder, the inhibition in vivo is how much of the control response was suppressed. For `FC(F)(F)c1ccc(-c2cc3[nH]ccn3n2)cc1` [Example 1, 6-(4-Trifluoromethylphenyl)-1H-imidazo[1,2-b]pyrazole], in data set [3], the “Toxicity (mouse)” value was 0/3. Also, the responders at 50 mg/kg in data set [1] is 80%. Also, in data set [4], the inhibition in vivo at 50 mg/kg was 44.2%.
With `FC(F)(F)c1cccc(-c2cc3[nH]ccn3n2)c1` [Example 2], the “Toxicity (mouse)” value in data set [3] is recorded as 0/3. The same compound showed a responders at 50 mg/kg in data set [1] of 60%. For the same compound, the inhibition in vivo at 50 mg/kg in data set [5] stood at 69.6%; in data set [4], 54%.
`c1ccc(-c2cc3[nH]ccn3n2)cc1` [Example 3, 6-phenyl-1H-imidazo[1,2-b]pyrazole]: the “Toxicity (mouse)” value in data set [3] was 0/5. For the same compound, the 50% effective dose (ED50) is 6.1 mg/kg in data set [1] (ED₅₀, Wistar rats); 13.9 mg/kg in data set [5]; 36.6 mg/kg in data set [2]. Further, the responders at 50 mg/kg in data set [1] is 100%. For the same compound, the inhibition in vivo at 50 mg/kg in data set [5] is 88%; in data set [4], 65.1%. Further, the “Suppression rate (%)” value in the data set on gastric acid secretions (dosage 10 mg/kg i.d.) is recorded as 66%; in the data set on gastric acid secretions (dosage 30 mg/kg i.d.) it was 85%.
On to `Cc1c(-c2ccccc2)nn2cc[nH]c12` [Example 4, 7-methyl-6-phenyl-1H-imidazo[1,2-b]pyrazole], for which the “Toxicity (mouse)” value in data set [3] is listed as 0/5. For the same compound, the 50% effective dose (ED50) in data set [1] (ED₅₀, Wistar rats) is 2.4 mg/kg; in data set [5], 26.7 mg/kg; in data set [2] it was 34.1 mg/kg. Moreover, the responders at 50 mg/kg in data set [1] is 100%. Further, the inhibition in vivo at 50 mg/kg in data set [5] was 60.5%; in data set [4] it was 64.9%. Also, the “Suppression rate (%)” value is recorded as 67% in the data set on gastric acid secretions (dosage 10 mg/kg i.d.) and 100% with gastric acid secretions (dosage 30 mg/kg i.d.).
Consider `COc1ccc(-c2cc3[nH]ccn3n2)cc1` [Example 5], for which the “Toxicity (mouse)” value in data set [3] was 0/3. This compound also gave a responders at 50 mg/kg in data set [1] of 100%. In addition, the inhibition in vivo at 50 mg/kg turned out to be 67.6% in data set [5] and 53.7% in data set [4].
For `Clc1ccc(-c2cc3[nH]ccn3n2)cc1` [Example 8, 6-(p-chlorophenyl)-1H-imidazo[1,2-b]pyrazole], in data set [3], the “Toxicity (mouse)” value is given as 0/3. For the same compound, the responders at 50 mg/kg in data set [1] was 100%. The inhibition in vivo at 50 mg/kg in data set [5] was 74.7%; in data set [4], 76.5%.
As to `c1csc(-c2cc3[nH]ccn3n2)c1` [Example 20, 6-(2-Thienyl)-1H-imidazo[1,2-b]pyrazole], the “Toxicity (mouse)” value in data set [3] is reported as 0/3. For the same compound, the ED50 in data set [1] (ED₅₀, Wistar rats) is 8 mg/kg; in data set [5] it was 7 mg/kg; in data set [2] it was 17.1 mg/kg. In data set [1], this compound showed a responders at 50 mg/kg of 100%. For the same compound, the results for the inhibition in vivo at 50 mg/kg in data set [5] and in data set [4] were 79.6% and 89.3%, respectively. Also, the “Suppression rate (%)” value in the data set with gastric acid secretions (dosage 10 mg/kg i.d.) worked out at 84%; with gastric acid secretions (dosage 30 mg/kg i.d.), 93%.
Consider `Cc1c(-c2cccs2)nn2cc[nH]c12` [Example 21, 7-Methyl-6-(2-thienyl)-1H-imidazo[1,2-b]pyrazole], for which, in data set [3], the “Toxicity (mouse)” value was 0/3. Further, the median effective dose (ED50) was determined as 10 mg/kg in data set [1] (ED₅₀, Wistar rats); 7.9 mg/kg in data set [5]; 22.3 mg/kg in data set [2]. Also, the responders at 50 mg/kg in data set [1] was 100%. The compound further yielded an inhibition in vivo at 25 mg/kg in data set [5] of 78.1%. At 50 mg/kg the inhibition in vivo in data set [4] was 53.4%.
Turning to `c1coc(-c2cc3[nH]ccn3n2)c1` [Example 22, 6-(2-Furyl)-1H-imidazo[1,2-b]pyrazole], the “Toxicity (mouse)” value in data set [3] is on record as 0/3. Also, the “Analgesic effect (Randall-Selitto)” value in data set [1] is reported as 4/5*. Besides, the inhibition in vivo at 50 mg/kg in data set [4] amounted to 76.3%.
`CCc1c(-c2cccs2)nn2cc[nH]c12` [Example 24]: the “Toxicity (mouse)” value in data set [3] is listed as 0/3. Besides, in data set [1], the “Analgesic effect (Randall-Selitto)” value is recorded as 4/5*. This compound had an inhibition in vivo at 50 mg/kg in data set [4] of 71.9%.
In the case of `c1ccc(-c2cnn3cc[nH]c23)cc1` [Example 29, 7-Phenyl-1H-imidazo[1.2-b]pyrazole], the “Toxicity (mouse)” value in data set [3] is reported as 0/3. In addition, the median effective dose (ED50) is 5.1 mg/kg in data set [1] (ED₅₀, Wistar rats); 14.8 mg/kg in data set [5]; 20.1 mg/kg in data set [2]. Also, the “Analgesic effect (Randall-Selitto)” value in data set [1] was 5/5*. Moreover, the inhibition in vivo at 25 mg/kg in data set [5] is 72.2%; in data set [4], 63.2%.
Regarding `c1csc(-c2cnn3cc[nH]c23)c1` [Example 32, 7-(2-thienyl)-1H-imidazo[1,2-b]pyrazole], in data set [3], the “Toxicity (mouse)” value is reported as 0/3. In addition, the ED50 in data set [1] (ED₅₀, Wistar rats) was 6.9 mg/kg; in data set [5], 10.9 mg/kg; in data set [2], 23.4 mg/kg. The “Analgesic effect (Randall-Selitto)” value in data set [1] is 5/5*. Besides, the inhibition in vivo at 25 mg/kg in data set [5] was 82.5%; in data set [4] it was 54.7%.
